Test results from patent US6953855B2 (priority 1998, dated 2005).

Biological target: T1, muscle-type receptors (α1β1γδ subtype in human TE671/RD clonal cells) (Homo sapiens, UniProt P02708+P07510+Q07001)
T1 construct: endogenous in cells; host or cells: human TE671/RD rhabdomyosarcoma cells
Assay: cell-based
Settings: read-out: agonist activity, % of nicotine's response (human muscle)

T1 sequence (P02708 21-457): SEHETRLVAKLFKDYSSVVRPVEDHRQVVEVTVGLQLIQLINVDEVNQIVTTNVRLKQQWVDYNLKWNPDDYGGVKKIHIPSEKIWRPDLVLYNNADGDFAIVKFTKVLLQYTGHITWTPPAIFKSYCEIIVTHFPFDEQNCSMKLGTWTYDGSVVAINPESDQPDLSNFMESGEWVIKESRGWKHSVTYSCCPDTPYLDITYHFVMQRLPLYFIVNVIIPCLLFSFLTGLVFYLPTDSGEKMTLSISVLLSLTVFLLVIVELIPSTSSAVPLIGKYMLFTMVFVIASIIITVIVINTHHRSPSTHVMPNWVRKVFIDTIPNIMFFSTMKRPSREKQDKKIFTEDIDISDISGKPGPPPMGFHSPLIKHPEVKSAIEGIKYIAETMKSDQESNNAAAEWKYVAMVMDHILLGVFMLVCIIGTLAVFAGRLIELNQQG
T1 sequence (P11230 24-501 partner): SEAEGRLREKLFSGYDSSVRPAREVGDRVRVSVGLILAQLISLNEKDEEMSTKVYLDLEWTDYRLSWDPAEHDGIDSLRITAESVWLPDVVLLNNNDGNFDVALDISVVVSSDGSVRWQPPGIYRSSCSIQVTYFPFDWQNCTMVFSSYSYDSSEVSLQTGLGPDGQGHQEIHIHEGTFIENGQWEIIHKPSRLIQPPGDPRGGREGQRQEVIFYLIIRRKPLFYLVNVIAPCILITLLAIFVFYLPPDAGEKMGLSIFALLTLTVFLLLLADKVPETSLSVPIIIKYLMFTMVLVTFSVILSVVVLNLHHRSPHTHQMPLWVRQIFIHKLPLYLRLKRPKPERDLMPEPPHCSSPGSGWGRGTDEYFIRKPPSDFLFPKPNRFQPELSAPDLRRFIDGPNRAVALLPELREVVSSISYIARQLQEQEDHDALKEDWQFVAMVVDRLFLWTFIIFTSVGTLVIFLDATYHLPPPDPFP
T1 sequence (P07510 23-517): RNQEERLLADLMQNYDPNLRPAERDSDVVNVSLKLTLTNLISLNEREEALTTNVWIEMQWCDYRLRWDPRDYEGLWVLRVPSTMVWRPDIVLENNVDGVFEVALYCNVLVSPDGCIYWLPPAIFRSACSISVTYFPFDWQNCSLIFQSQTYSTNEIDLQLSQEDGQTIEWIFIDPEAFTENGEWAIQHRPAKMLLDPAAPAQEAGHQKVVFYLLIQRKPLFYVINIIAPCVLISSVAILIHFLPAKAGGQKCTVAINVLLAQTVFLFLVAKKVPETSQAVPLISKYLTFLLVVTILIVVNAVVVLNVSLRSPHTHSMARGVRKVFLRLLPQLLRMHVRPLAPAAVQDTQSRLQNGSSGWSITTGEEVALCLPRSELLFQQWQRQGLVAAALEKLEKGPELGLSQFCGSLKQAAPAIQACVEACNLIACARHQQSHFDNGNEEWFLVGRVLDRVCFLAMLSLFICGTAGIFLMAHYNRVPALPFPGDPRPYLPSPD
T1 sequence (Q07001 22-517): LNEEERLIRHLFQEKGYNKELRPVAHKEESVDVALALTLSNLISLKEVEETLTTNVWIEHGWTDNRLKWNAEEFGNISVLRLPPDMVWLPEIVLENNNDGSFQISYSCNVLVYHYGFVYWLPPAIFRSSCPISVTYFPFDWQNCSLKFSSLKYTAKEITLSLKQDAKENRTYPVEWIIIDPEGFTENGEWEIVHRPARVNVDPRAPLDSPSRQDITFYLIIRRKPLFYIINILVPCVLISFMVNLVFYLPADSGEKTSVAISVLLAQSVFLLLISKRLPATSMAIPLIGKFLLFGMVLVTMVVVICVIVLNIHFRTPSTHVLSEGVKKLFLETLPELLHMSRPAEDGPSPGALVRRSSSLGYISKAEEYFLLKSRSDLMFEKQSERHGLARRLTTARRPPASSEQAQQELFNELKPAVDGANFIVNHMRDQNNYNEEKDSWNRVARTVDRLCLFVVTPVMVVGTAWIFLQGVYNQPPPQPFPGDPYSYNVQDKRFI

| Structure (SMILES) | activation at 100 µM |
| --- | --- |
| O=C(Nc1ccc(Br)cc1)OC1C2CCN(CC2)C1Cc1cccnc1 (centres unmarked) [Compound 1, 2-((3-pyridinyl)methyl)-1-azabicyclo[2.2.2]oct-3-yl N-(4-bromophenyl)carbamate] | 1 to 12% |
| O=C(Nc1ccc(F)cc1)OC1C2CCN(CC2)C1Cc1cccnc1 (centres unmarked) [Compound 3, 2-((3-pyridinyl)methyl)-1-azabicyclo[2.2.2]oct-3-yl N-(4-fluorophenyl)carbamate] | 1 to 12% |
| COc1ccc(NC(=O)OC2C3CCN(CC3)C2Cc2cccnc2)cc1 (centres unmarked) [Compound 4, 2-((3-pyridinyl)methyl)-1-azabicyclo[2.2.2]oct-3-yl N-(4-methoxyphenyl)carbamate] | 1 to 12% |
| CSc1ccc(NC(=O)OC2C3CCN(CC3)C2Cc2cccnc2)cc1 (centres unmarked) [Compound 5, 2-((3-pyridinyl)methyl)-1-azabicyclo[2.2.2]oct-3-yl N-(4-methylthiophenyl)carbamate] | 1 to 12% |
| O=C(NC1C2CCN(CC2)C1Cc1cccnc1)c1ccc(F)cc1 (centres unmarked) [Compound 8, N-(2-((3-pyridinyl)methyl)-1-azabicyclo[2.2.2]oct-3-yl)-4-fluorobenzamide] | 1 to 12% |
| O=C(NC1C2CCN(CC2)C1Cc1cccnc1)c1cc2ccccc2o1 (centres unmarked) [Compound 9, N-(2-((3-pyridinyl)methyl)-1-azabicyclo[2.2.2]oct-3-yl)benzofuran-2-carboxamide] | 1 to 12% |
| O=C(NC1C2CCN(CC2)C1Cc1cccnc1)c1ccc(Br)cc1 (centres unmarked) [Compound 10, N-(2-((3-pyridinyl)methyl)-1-azabicyclo[2.2.2]oct-3-yl)-4-bromobenzamide] | 1 to 12% |
| O=C(NC1C2CCN(CC2)C1Cc1cccnc1)c1ccccc1 (centres unmarked) [Compound 13, N-(2-((3-pyridinyl)methyl)-1-azabicyclo[2.2.2]oct-3-yl)benzamide] | 1 to 12% |
| COc1cccc(C(=O)NC2C3CCN(CC3)C2Cc2cccnc2)c1 (centres unmarked) [Compound 14, N-(2-((3-pyridinyl)methyl)-1-azabicyclo[2.2.2]oct-3-yl)-3-methoxybenzamide] | 1 to 12% |
| O=C(NC1C2CCN(CC2)C1Cc1cccnc1)c1cccc(Br)c1 (centres unmarked) [Compound 15, N-(2-((3-pyridinyl)methyl)-1-azabicyclo[2.2.2]oct-3-yl)-3-bromobenzamide] | 1 to 12% |
| O=C(Nc1ccccc1)NC1C2CCN(CC2)C1Cc1cccnc1 (centres unmarked) [Compound 16, N-phenyl-N′-(2-((3-pyridinyl)methyl)-1-azabicyclo[2.2.2]oct-3-yl)urea] | 1 to 12% |
| O=C(Nc1ccc(Oc2ccccc2)cc1)NC1C2CCN(CC2)C1Cc1cccnc1 (centres unmarked) [Compound 17, N-(4-phenoxyphenyl)-N′-(2-((3-pyridinyl)methyl)-1-azabicyclo[2.2.2]oct-3-yl)urea] | 1 to 12% |
| CSc1ccc(NC(=O)NC2C3CCN(CC3)C2Cc2cccnc2)cc1 (centres unmarked) [Compound 18, N-(4-methylthiophenyl)-N′-(2-((3-pyridinyl)methyl)-1-azabicyclo[2.2.2]oct-3-yl)urea] | 1 to 12% |
| O=C(Nc1cccc(F)c1)NC1C2CCN(CC2)C1Cc1cccnc1 (centres unmarked) [Compound 19, N-(3-fluorophenyl)-N′-(2-((3-pyridinyl)methyl)-1-azabicyclo[2.2.2]oct-3-yl)urea] | 1 to 12% |
| O=C(Nc1ccc(Br)cc1)NC1C2CCN(CC2)C1Cc1cccnc1 (centres unmarked) [Compound 20, N-(4-bromophenyl)-N′-(2-((3-pyridinyl)methyl)-1-azabicyclo[2.2.2]oct-3-yl)urea] | 1 to 12% |
| COc1ccccc1NC(=O)NC1C2CCN(CC2)C1Cc1cccnc1 (centres unmarked) [Compound 21, N-(2-methoxyphenyl)-N′-(2-((3-pyridinyl)methyl)-1-azabicyclo[2.2.2]oct-3-yl)urea] | 1 to 12% |
| COc1ccc(NC(=O)NC2C3CCN(CC3)C2Cc2cccnc2)c(OC)c1 (centres unmarked) [Compound 22, N-(2,4-dimethoxyphenyl)-N′-(2-((3-pyridinyl)methyl)-1-azabicyclo[2.2.2]oct-3-yl)urea] | 1 to 12% |
| O=C(Nc1ccc(Cl)c(Cl)c1)NC1C2CCN(CC2)C1Cc1cccnc1 (centres unmarked) [Compound 23, N-(3,4-dichlorophenyl)-N′-(2-((3-pyridinyl)methyl)-1-azabicyclo[2.2.2]oct-3-yl)urea] | 1 to 12% |
| COc1ccc(NC(=O)NC2C3CCN(CC3)C2Cc2cccnc2)cc1 (centres unmarked) [Compound 24, N-(4-methoxyphenyl)-N′-(2-((3-pyridinyl)methyl)-1-azabicyclo[2.2.2]oct-3-yl)urea] | 1 to 12% |
| CN(C)c1ccc(NC(=O)NC2C3CCN(CC3)C2Cc2cccnc2)cc1 (centres unmarked) [Compound 25, N-(4-dimethylaminophenyl)-N′-(2-((3-pyridinyl)methyl)-1-azabicyclo[2.2.2]oct-3-yl)urea] | 1 to 12% |
| CN(C(=O)Nc1ccccc1)C1C2CCN(CC2)C1Cc1cccnc1 (centres unmarked) [Compound 26, N-phenyl-N′-methyl-N′-(2-((3-pyridinyl)methyl)-1-azabicyclo[2.2.2]oct-3-yl)urea] | 1 to 12% |
| CN(C(=O)Nc1ccc(Br)cc1)C1C2CCN(CC2)C1Cc1cccnc1 (centres unmarked) [Compound 27, N-(4-bromophenyl)-N′-methyl-N′-(2-((3-pyridinyl)methyl)-1-azabicyclo [2.2.2]oct-3-yl)urea] | 1 to 12% |
| O=C(C=Cc1ccccc1)NC1C2CCN(CC2)C1Cc1cccnc1 (centres unmarked) [Compound 28, N-(2-((3-pyridinyl)methyl)-1-azabicyclo[2.2.2]oct-3-yl)3-phenylprop-2-enamide] | 1 to 12% |
| O=C(C=Cc1ccc(Cl)cc1)NC1C2CCN(CC2)C1Cc1cccnc1 (centres unmarked) [Compound 29, N-(2-((3-pyridinyl)methyl)-1-azabicyclo[2.2.2]oct-3-yl)-3-(4-chlorophenyl)prop-2-enamide] | 1 to 12% |
| O=C(C=Cc1ccc(Br)cc1)NC1C2CCN(CC2)C1Cc1cccnc1 (centres unmarked) [Compound 30, N-(2-((3-pyridinyl)methyl)-1-azabicyclo[2.2.2]oct-3-yl)-3-(4-bromophenyl)prop-2-enamide] | 1 to 12% |
| O=C(C=Cc1cccc(O)c1)NC1C2CCN(CC2)C1Cc1cccnc1 (centres unmarked) [Compound 31, N-(2-((3-pyridinyl)methyl)-1-azabicyclo[2.2.2]oct-3-yl)-3-(3-hydroxyphenyl)prop-2-enamide] | 1 to 12% |
| COc1cccc(C=CC(=O)NC2C3CCN(CC3)C2Cc2cccnc2)c1 (centres unmarked) [Compound 32, N-(2-((3-pyridinyl)methyl)-1-azabicyclo[2.2.2]oct-3-yl)-3-(3-methoxyphenyl)prop-2-enamide] | 1 to 12% |
| O=C(C=Cc1ccccc1F)NC1C2CCN(CC2)C1Cc1cccnc1 (centres unmarked) [Compound 33, N-(2-((3-pyridinyl)methyl)-1-azabicyclo[2.2.2]oct-3-yl)-3-(2-fluorophenyl)prop-2-enamide] | 1 to 12% |
| O=C(C=Cc1ccccc1O)NC1C2CCN(CC2)C1Cc1cccnc1 (centres unmarked) [Compound 34, N-(2-((3-pyridinyl)methyl)-1-azabicyclo[2.2.2]oct-3-yl)-3-(2-hydroxyphenyl)prop-2-enamide] | 1 to 12% |
